Assay results as given in patent US20200016159A1, “N3-CYCLICALLY SUBSTITUTED THIENOURACILS AND USE THEREOF” (Bayer Aktiengesellschaft, priority 2016, published 2020).

What follows are compounds tested against T1, human adenosine A2b receptor (Homo sapiens, UniProt P29275) (assay: Cellular in vitro reporter gene test for A2b receptor activity (antagonism of NECA)). Details: recombinant CHO-K1 cells, CRE-luciferase reporter, co-incubation with EC50 concentration of NECA, 3 hours.
T1 sequence (P29275 1-332): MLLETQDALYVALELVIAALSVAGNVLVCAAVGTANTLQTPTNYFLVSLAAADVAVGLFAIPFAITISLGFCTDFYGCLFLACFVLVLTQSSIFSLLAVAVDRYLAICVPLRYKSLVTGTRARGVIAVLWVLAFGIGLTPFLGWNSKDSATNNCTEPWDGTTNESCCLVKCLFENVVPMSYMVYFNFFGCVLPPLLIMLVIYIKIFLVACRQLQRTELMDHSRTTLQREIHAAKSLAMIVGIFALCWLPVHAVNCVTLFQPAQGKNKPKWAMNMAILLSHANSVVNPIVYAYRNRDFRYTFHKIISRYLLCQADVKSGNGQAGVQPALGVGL
Assay type: cell-based
Parameters: expressed in transfected cells; host or cells: CHO-K1 (Chinese hamster ovary) with CRE-luciferase reporter
Method in brief: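 Antagonism measured as block of NECA-induced, cAMP/CRE-dependent luciferase expression in recombinant A2b CHO-K1 cells. NECA used at the EC50 set in a pre-experiment on each test day; luminescence detected after 3 h. Reported as IC50, partly averaged and rounded to two significant figures.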
For `CCC1CC1n1c(=O)c2c(C)c(CN3CCNC3=O)sc2n(CCOC)c1=O` (racemic) [Example 300, 3-(2-Ethylcyclopropyl)-1-(2-methoxyethyl)-5-methyl-6-[(2-oxoimidazolidin-1-yl)methyl]thieno[2,3-d]pyrimidine-2,4(1H,3H)-dione], the IC50 was 13 nM.
`Cc1c(CN2CCNC2=O)sc2c1c(=O)n(C1CC1C)c(=O)n2CC(F)(F)F` (racemic) [Example 237, 5-Methyl-3-(2-methylcyclopropyl)-6-[(2-oxoimidazolidin-1-yl)methyl]-1-(2,2,2-trifluoroethyl)thieno[2,3-d]pyrimidine-2,4(1H,3H)-dione] gave an IC50 of 4.4 nM.
Compound `Cc1c(Cn2cc[nH]c2=O)sc2c1c(=O)n(C1(C)CC1)c(=O)n2CC1CC(F)(F)C1` [Example 216] has an IC50 of 3.2 nM.
In the case of `COCCn1c(=O)n(C2(C)CC2)c(=O)c2c(C)c(CN3CCNC(=O)C3=O)sc21` [Example 73, 6-[(2,3-Dioxopiperazin-1-yl)methyl]-1-(2-methoxyethyl)-5-methyl-3-(1-methylcyclopropyl)thieno[2,3-d]pyrimidine-2,4(1H,3H)-dione], the IC50 is reported as 29 nM.
`Cc1c(CN2CCNC(=O)C2=O)sc2c1c(=O)n(C1CC(C)(C)C1)c(=O)n2CCC(F)(F)F` [Example 167, 3-(3,3-Dimethylcyclobutyl)-6-[(2,3-dioxopiperazin-1-yl)methyl]-5-methyl-1-(3,3,3-trifluoropropyl)thieno[2,3-d]pyrimidine-2,4(1H,3H)-dione] gave an IC50 of 5.3 nM.
`Cc1c(Cn2nc[nH]c2=O)sc2c1c(=O)n(C1(C)CC1)c(=O)n2CC1CC1(F)F` (single isomer, unassigned) [Example 67, 1-[(2,2-Difluorocyclopropyl)methyl]-5-methyl-3-(1-methylcyclopropyl)-6-[(5-oxo-4,5-dihydro-1H-1,2,4-triazol-1-yl)methyl]thieno[2,3-d]pyrimidine-2,4(1H,3H)-dione] was tested, and the IC50 was 54 nM.
With `Cc1c(CN2CCNC2=O)sc2c1c(=O)n(C1CC1C)c(=O)n2CCCF` (single isomer, unassigned) [Example 91, 1-(3-Fluoropropyl)-5-methyl-3-(2-methylcyclopropyl)-6-[(2-oxoimidazolidin-1-yl)methyl]thieno[2,3-d]pyrimidine-2,4(1H,3H)-dione] the IC50 was 20 nM.
In the case of `Cc1c(CN2CCNC2=O)sc2c1c(=O)n(C1CC1C)c(=O)n2CCOC(F)(F)F` (single isomer, unassigned) [Example 263, 5-Methyl-3-(2-methylcyclopropyl)-6-[(2-oxoimidazolidin-1-yl)methyl]-1-[2-(trifluoromethoxy)ethyl]thieno[2,3-d]pyrimidine-2,4(1H,3H)-dione], the IC50 is reported as 1.1 nM.
For `Cc1c(Cn2nc[nH]c2=O)sc2c1c(=O)n(C1CC1)c(=O)n2C[C@@H]1CCCO1` [Example 51, 3-Cyclopropyl-5-methyl-6-[(5-oxo-4,5-dihydro-1H-1,2,4-triazol-1-yl)methyl]-1-[(2S)-tetrahydrofuran-2-ylmethyl]thieno[2,3-d]pyrimidine-2,4(1H, 3H)-dione], the IC50 was 320 nM.
In the case of `Cc1c(CN2CCNC2=O)sc2c1c(=O)n([C@H]1C[C@@H]1C)c(=O)n2CC1COC1` [Example 285, 5-Methyl-3-[(1S,2S)-2-methylcyclopropyl]-1-(oxetan-3-ylmethyl)-6-[(2-oxoimidazoliddin-1-yl)methyl]thieno[2,3-d]pyrimidine-2,4(1H,3H)-dione], the IC50 is reported as 4.1 nM.
In the case of `COCCn1c(=O)n(C2CC2)c(=O)c2c(C)c(CN3CCNC3=NC#N)sc21` [Example 25, [1-{[3-Cyclopropyl-1-(2-methoxyethyl)-5-methyl-2,4-dioxo-1,2,3,4-tetrahydrothieno[2,3-d]pyrimidin-6-yl]methyl}imidazolidin-2-ylidene]cyanamide], the IC50 is reported as 12 nM.
Work on `Cc1c(CN2CCNC2=O)sc2c1c(=O)n(C1CC1C)c(=O)n2CC(F)F` (single isomer, unassigned) [Example 236, 1-(2,2-Difluoroethyl)-5-methyl-3-(2-methylcyclopropyl)-6-[(2-oxoimidazolidin-1-yl)methyl]thieno[2,3-d]pyrimidine-2,4(1H,3H)-dione] yielded an IC50 of 1.2 nM.
Compound `Cc1c(CN2CCNC2=O)sc2c1c(=O)n(C1(C)CC1)c(=O)n2C` [Example 52, 1,5-Dimethyl-3-(1-methylcyclopropyl)-6-[(2-oxoimidazolidin-1-yl)methyl]thieno[2,3-d]pyrimidine-2,4(1H,3H)-dione] has an IC50 of 19 nM.
For `Cc1c(CN2CCNC2=O)sc2c1c(=O)n(C1CC1C)c(=O)n2CCCC(F)(F)F` (single isomer, unassigned) [Example 243, 5-Methyl-3-(2-methylcyclopropyl)-6-[(2-oxoimidazolidin-1-yl)methyl]-1-(4,4,4-trifluorobutyl)thieno[2,3-d]pyrimidine-2,4(1H,3H)-dione], the IC50 was 8.4 nM.
Work on `COCCn1c(=O)n(C2CCC2)c(=O)c2c(C)c(CN3CCNC(=O)C3=O)sc21` [Example 118, 3-Cyclobutyl-6-[(2,3-dioxopiperazin-1-yl)methyl]-1-(2-methoxyethyl)-5-methylthieno[2,3-d]pyrimidine-2,4(1H,3H)-dione] yielded an IC50 of 14 nM.
`Cc1c(Cn2nc[nH]c2=O)sc2c1c(=O)n(C1CC3(CCC3)C1)c(=O)n2CCC(F)(F)F` [Example 178, 5-Methyl-6-[(5-oxo-4,5-dihydro-1H-1,2,4-triazol-1-yl)methyl]-3-(spiro[3.3]hept-2-yl)-1-(3,3,3-trifluoropropyl)thieno[2,3-d]pyrimidine-2,4(1H,3H)-dione] was tested, and the IC50 was 26 nM.
With `COCCn1c(=O)n(C2(C(F)(F)F)CC2)c(=O)c2c(C)c(CN3CCNC3=O)sc21` [Example 85, 1-(2-Methoxyethyl)-5-methyl-6-[(2-oxoimidazolidin-1-yl)methyl]-3-[1-(trifluoromethyl)cyclopropyl]thieno[2,3-d]pyrimidine-2,4(1H,3H)-dione] the IC50 was 310 nM.
Compound `COCCn1c(=O)n([C@H]2C[C@@H](OC)C2)c(=O)c2c(C)c(CN3CCNC3=O)sc21` [Example 159, 3-(cis-3-Methoxycyclobutyl)-1-(2-methoxyethyl)-5-methyl-6-[(2-oxoimidazolidin-1-yl)methyl]thieno[2,3-d]pyrimidine-2,4(1H,3H)-dione] has an IC50 of 200 nM.
`COCCn1c(=O)n(C2CC2C)c(=O)c2c(C)c(CN3CCNC3=O)sc21` (single isomer, unassigned) [Example 260, 1-(2-Methoxyethyl)-5-methyl-3-(2-methylcyclopropyl)-6-[(2-oxoimidazolidin-1-yl)methyl]thieno[2,3-d]pyrimidine-2,4(1H,3H)-dione] was tested, and the IC50 was 82 nM.
`Cc1c(Cn2cc[nH]c2=O)sc2c1c(=O)n(C1CC1)c(=O)n2CCC(F)(F)F` [Example 14, 3-Cyclopropyl-5-methyl-6-[(2-oxo-2,3-dihydro-1H-imidazol-1-yl)methyl]-1-(3,3,3-trifluoropropyl)thieno[2,3-d]pyrimidine-2,4(1H,3H)-dione] showed an IC50 of 3.7 nM.
With `COCCn1c(=O)n(C2CC2C(F)(F)F)c(=O)c2c(C)c(CN3CCNC3=O)sc21` (single isomer, unassigned) [Example 296, 1-(2-Methoxyethyl)-5-methyl-6-[(2-oxoimidazolidin-1-yl)methyl]-3-[2-(trifluoromethyl)cyclopropyl]thieno[2,3-d]pyrimidine-2,4(1H,3H)-dione] the IC50 was 16 nM.
For `Cc1c(Cn2nc[nH]c2=O)sc2c1c(=O)n(C1(C)CC1)c(=O)n2CCOC(C)C` [Example 80, 1-(2-Isopropoxyethyl)-5-methyl-3-(1-methylcyclopropyl)-6-[(5-oxo-4,5-dihydro-H-1,2,4-triazol-1-yl)methyl]thieno[2,3-d]pyrimidine-2,4(1H,3H)-dione], the IC50 was 740 nM.
With `Cc1c(CN2CCNC2=O)sc2c1c(=O)n(C1CC1(C)C)c(=O)n2CCC(F)(F)F` (single isomer, unassigned) [Example 101, 3-(2,2-Dimethylcyclopropyl)-5-methyl-6-[(2-oxoimidazolidin-1-yl)methyl]-1-(3,3,3-trifluoropropyl)thieno[2,3-d]pyrimidine-2,4(1H,3H)-dione] the IC50 was 32 nM.
`Cc1c(CN2CCNC2=O)sc2c1c(=O)n(C1CC1C)c(=O)n2CC(F)(F)F` (single isomer, unassigned) [Example 238, 5-Methyl-3-(2-methylcyclopropyl)-6-[(2-oxoimidazolidin-1-yl)methyl]-1-(2,2,2-trifluoroethyl)thieno[2,3-d]pyrimidine-2,4(1H,3H)-dione] was tested, and the IC50 was 24 nM.
With `CCC1CC1n1c(=O)c2c(C)c(CN3CCNC3=O)sc2n(CCOC)c1=O` (single isomer, unassigned) [Example 301, 3-(2-Ethylcyclopropyl)-1-(2-methoxyethyl)-5-methyl-6-[(2-oxoimidazolidin-1-yl)methyl]thieno[2,3-d]pyrimidine-2,4(1H,3H)-dione] the IC50 was 64 nM.
With `COCCn1c(=O)n(C2CCCC2)c(=O)c2c(C)c(CN3CCNC(=O)C3=O)sc21` [Example 192, 3-Cyclopentyl-6-[(2,3-dioxopiperazin-1-yl)methyl]-1-(2-methoxyethyl)-5-methylthieno[2,3-d]pyrimidine-2,4(1H,3H)-dione] the IC50 was 140 nM.
For `Cc1c(CN2CCNC2=NC#N)sc2c1c(=O)n(C1COC1)c(=O)n2CCC(F)(F)F` [Example 131, [1-{[5-Methyl-3-(oxetan-3-yl)-2,4-dioxo-1-(3,3,3-trifluoropropyl)-1,2,3,4-tetrahydrothieno[2,3-d]pyrimidin-6-yl]methyl}imidazolidin-2-ylidene]cyanamide], the IC50 was 68 nM.
